PubChem BioAssay (NCI)
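Tested at 5 concentrations; 48 h exposure; 96-well plates; endpoints linearly interpolated, else capped at highest concentration. TGI: total growth inhibition.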

How the values were obtained:
Assay in all cases: growth of human tumour cells (NCI), 48 h
CCRF-CEM leukemia = system: CCRF-CEM leukemia
NCI-H460 lung = system: NCI-H460 lung
SNB-19 CNS = system: SNB-19 CNS
HCT-15 colon = system: HCT-15 colon
UO-31 renal = system: UO-31 renal
RXF 393 renal = system: RXF 393 renal
HCT-116 colon = system: HCT-116 colon
HT29 colon = system: HT29 colon
RPMI-8226 leukemia = system: RPMI-8226 leukemia
OVCAR-3 ovarian = system: OVCAR-3 ovarian
SW-620 colon = system: SW-620 colon
HS 578T breast = system: HS 578T breast
MOLT-4 leukemia = system: MOLT-4 leukemia
IGROV1 ovarian = system: IGROV1 ovarian
MCF7 breast = system: MCF7 breast
SK-MEL-2 melanoma = system: SK-MEL-2 melanoma
HOP-92 NSCLC = system: HOP-92 NSCLC
U251 CNS = system: U251 CNS
NCI-H522 lung = system: NCI-H522 lung
TK-10 renal = system: TK-10 renal

SMILES | TGI (CCRF-CEM leukemia) [µM] | TGI (NCI-H460 lung) [µM] | TGI (SNB-19 CNS) [µM] | TGI (HCT-15 colon) [µM] | TGI (UO-31 renal) [µM] | TGI (RXF 393 renal) [µM] | TGI (HCT-116 colon) [µM] | TGI (HT29 colon) [µM] | TGI (RPMI-8226 leukemia) [µM] | TGI (OVCAR-3 ovarian) [µM] | TGI (SW-620 colon) [µM] | TGI (HS 578T breast) [µM] | TGI (MOLT-4 leukemia) [µM] | TGI (IGROV1 ovarian) [µM] | TGI (MCF7 breast) [µM] | TGI (SK-MEL-2 melanoma) [µM] | TGI (HOP-92 NSCLC) [µM] | TGI (U251 CNS) [µM] | TGI (NCI-H522 lung) [µM] | TGI (TK-10 renal) [µM]
CCCCC1CCCCCCc2[nH]c(/C=C3\N=C(c4ccc[nH]4)C=C3OC)cc21 (stereo not given) | 0.566 | 2.92 | 8.65 | 1.9 | 0.071 | 1.11 | 0.0531 | 1.11 | 0.226 | < 0.0224 | 1.15 | 1.62 | 0.0443 | 1.29 | 1.11 | < 0.0237 | 0.42 | 0.49 | 1.38 | 3.18
O=c1oc2cc(O)ccc2c(O)c1C(c1ccc2ccccc2c1)c1c(O)c2ccc(O)cc2oc1=O | > 100 | > 100 | 49.3 | > 100 | 31.7 | > 100 | > 100 | > 100 | 85.2 | > 100 | > 100 | 59.7 | > 100 | > 100 | > 100 | > 100 | > 100 | > 100 | > 100 | > 100
CC1(C)[C@H]2CC[C@](C)(C2)[C@]1(S)Cc1ccccn1 | 24.8 | > 100 | > 100 | > 100 | > 100 | 80.2 | > 100 | > 100 | 93.5 | 73 | > 100 | > 100 | 54 | > 100 | > 100 | 46.1 | > 100 | 36.6 | > 100 | > 100
COCn1c(=O)n(C)c(=O)c2c1nc1c(c(=O)n(C)c(=O)n1COC)[n+]2[O-] | 27.4 | 24.9 | > 100 | 30.6 | > 100 | 10.9 | 39.5 | > 100 | 37.8 | 44.1 | > 100 | 50.1 | 29.5 | 48.9 | > 100 | 36.8 | 42 | 59.6 | 44 | 58.8
O=C1C(=Cc2cccc(Cl)c2)N=C(c2ccccc2)N1n1c(-c2ccccc2)nc2ccccc2c1=O | > 100 | > 100 | > 100 | > 100 | > 100 | > 100 | > 100 | > 100 | > 100 | > 100 | > 100 | > 100 | > 100 | > 100 | > 100 | > 100 | 81.4 | > 100 | 51.7 | > 100
O=C1CCN=C(NC(=O)C(F)(F)F)N1CCc1c[nH]c2ccccc12 | > 100 | > 100 | > 100 | > 100 | > 100 | > 100 | > 100 | > 100 | > 100 | > 100 | > 100 | > 100 | > 100 | > 100 | > 100 | > 100 | > 100 | > 100 | > 100 | > 100
